The subject of this assay is OB-R. As to the kind of experiment: Competitive binding of 125I-human leptin to OB-R in rabbit endometrial cell lysates. How it is done: ^125I-human leptin served as ligand and LPA-2 and LPA-2Sc as competitors for the binding to OB-R in cellular extracts. All compounds were diluted in assay buffer (50 mM Tris and 100 mM NaCl, pH 8.5) to promote proper re-folding. Each assay tube contained 50 μl of cellular lysate (100 μg protein from 10^6 cells cultured for two days in basal medium), 50 μl of ^125I-human leptin (100.000 cpm), and 50 μl of LPAs (providing 10^−5-10^−14 M/tube). The tubes were incubated for 24 h at room temperature. Then, 250 μl of 1% BSA (w/v) and 500 μl of 20% polyethylene glycol (w/v) in PBS were added and the tubes were incubated for an additional 12-h period at 4° C. The tubes were centrifuged at 12.000 g for 15 min at 4° C. After careful aspiration of supernatant and complete drying of the tube-walls with filter paper, ^125I-human leptin binding in the precipitates was measured (Beckman 5000, counter). The binding of ^125I-leptin to OB-R in absence of LPAs was set at 100%, and LPA competitive binding values were expressed as percentages of total cpm. Affinity binding constants for LPAs were calculated from the competition curves.

The Ki is a measure of affinity in units of concentration, obtained from inhibition or displacement. As for “SRNVIQISNDLENLRDLLHVLAFSKS [LPA-2, 26 amino acid peptide, residues 70-95 of helix III of the human leptin molecule; leptin peptide antagonist]”, the “competition with 125I-leptin for binding to OB-R” value (cellular lysates of rabbit endometrial cells) was “displaced”. Besides, the Ki (competition with 125I-leptin, OB-R expressed by rabbit endometrial cells (rEEC and rESC), protein extracts) is about 0.06 nM.
